Test results published in patent publication US20020102259A1, “Methods and compositions for stimulating CD 45 and thereby suppressing microglial activation associated with Alzheimer's disease” (priority 2000, published 2002).
Entries after “also recorded” stand apart in the source; their conditions may differ.

B1: CD45 recombinant protein: Human CD45 recombinant protein obtained from CALBIOCHEM, added at 20 U/mL (protein, UniProt P08575 26-1306, looked up)
Receptor-type …: QSPTPSPTGLTTAKMPSVPLSSDPLPTHTTAFSPASTFERENDFSETTTSLSPDNTSTQVSPDSLDNASAFNTTGVSSVQTPHLPTHADSQTPSAGTDTQTFSGSAANAKLNPTPGSNAISDVPGERSTASTFPTDPVSPLTTTLSLAHHSSAALPARTSNTTITANTSDAYLNASETTTLSPSGSAVISTTTIATTPSKPTCDEKYANITVDYLYNKETKLFTAKLNVNENVECGNNTCTNNEVHNLTECKNASVSISHNSCTAPDKTLILDVPPGVEKFQLHDCTQVEKADTTICLKWKNIETFTCDTQNITYRFQCGNMIFDNKEIKLENLEPEHEYKCDSEILYNNHKFTNASKIIKTDFGSPGEPQIIFCRSEAAHQGVITWNPPQRSFHNFTLCYIKETEKDCLNLDKNLIKYDLQNLKPYTKYVLSLHAYIIAKVQRNGSAAMCHFTTKSAPPSQVWNMTVSMTSDNSMHVKCRPPRDRNGPHERYHLEVEAGNTLVRNESHKNCDFRVKDLQYSTDYTFKAYFHNGDYPGEPFILHHSTSYNSKALIAFLAFLIIVTSIALLVVLYKIYDLHKKRSCNLDEQQELVERDDEKQLMNVEPIHADILLETYKRKIADEGRLFLAEFQSIPRVFSKFPIKEARKPFNQNKNRYVDILPYDYNRVELSEINGDAGSNYINASYIDGFKEPRKYIAAQGPRDETVDDFWRMIWEQKATVIVMVTRCEEGNRNKCAEYWPSMEEGTRAFGDVVVKINQHKRCPDYIIQKLNIVNKKEKATGREVTHIQFTSWPDHGVPEDPHLLLKLRRRVNAFSNFFSGPIVVHCSAGVGRTGTYIGIDAMLEGLEAENKVDVYGYVVKLRRQRCLMVQVEAQYILIHQALVEYNQFGETEVNLSELHPYLHNMKKRDPPSEPSPLEAEFQRLPSYRSWRTQHIGNQEENKSKNRNSNVIPYDYNRVPLKHELEMSKESEHDSDESSDDDSDSEEPSKYINASFIMSYWKPEVMIAAQGPLKETIGDFWQMIFQRKVKVIVMLTELKHGDQEICAQYWGEGKQTYGDIEVDLKDTDKSSTYTLRVFELRHSKRKDSRTVYQYQYTNWSVEQLPAEPKELISMIQVVKQKLPQKNSSEGNKHHKSTPLLIHCRDGSQQTGIFCALLNLLESAETEEVVDIFQVVKALRKARPGMVSTFEQYQFLYDVIASTYPAQNGQVKKNNHQEDKIEFDNEVDKVKQDANCVNPLGAPEKLPEAKEQAEGSEPTSGTEGPEHSVNGPASPALNQGS

Tests used:
[1] = test system: primary cultured microglial cells; test: Nitric oxide (NO) release assay on primary cultured microglial cells; format: cell-based, mouse; details: for NO release induced by phen and Aβ peptides: microglia activated with phen (5 mM) and Aβ peptides (1000 nM), 12 h, effect of added agent; for NO release (microglial activation): phosphatase inhibitor co-treated with Aβ peptides (1000 nM), wild-type microglia, 12 hours
Experimental: (§1) Breeding pairs of BALB/c and CD45 deficient (C57BL/601aHsd-Ptprc) mice were purchased from Jackson Laboratory (Bar Harbor, Maine) and housed in the animal facility at the University of South Florida Health Science Center. Tg APPSW mice are the 2576 line backcrossed to C57B6/SJL as previously described (Hsiao et al., 1995; Hsiao et al., 1996). Murine primary culture microglia were isolated from mouse cerebral cortices and were grown in RPMI medium supplemented with 5% fetal calf serum, 2 mM glutamine, 100 U/mL penicillin, […] streptomycin and 0.05 mM 2-mercaptoethanol according to previously described methods (Chao et al., 1992). Briefly, cerebral cortices from newborn mice (1-2 days old) were isolated under sterile conditions and were kept at 4 degrees Centigrade prior to mechanical dissociation. Cells were plated in […] flasks and complete medium was added. Primary cultures were kept for 14 days so that only glial cells remained, and microglia were isolated by shaking flasks at 200 rpm in a LabLine TM Incubator-Shaker. More than 98% of these glial cells stained positive for Mac-1 (CD11b /CD18; Boehringer Mannheim Biochemicals, Indianapolis, Ind.). Mouse primary culture neuronal cells were prepared as previously described (Chao et al., 1992). Briefly, cerebral cortices were isolated from BALB/c mouse embryos, between 15 to 17 days in utero, and cortices were mechanically dissociated in trypsin ([…]) following incubation for 15 min at 37° C. Cells were collected following centrifugation at 1200 rpm and resuspended in DMEM (GIBCO, Gaithersburg, Md.) supplemented with 10% fetal calf serum, 10% horse serum, uridine (33.6 mg/mL, Sigma Chemical-Co., St. Louis, Mo.) and fluorodeoxyuridine (1 3.6 mg/mL, Sigma) and plated in 24 well tissue-culture plates at 2.5×1 O′ cells/well after collagen-coating the plates. After 10 days in vitro, cells were passed in preparation for subsequent experiments. […] To verify CD45 deficiency status, CD45 expression in microglia isolated from CD45 -deficient mice was determined by FACS (fluorescence activated cell sorter) analysis as previously described (Tan et al., 1999a), and CD45 was undetectable in these cells (data not shown).
(§2) Primary cultured microglial cells were plated in 24-well tissue-culture plates (Costar, Cambridge, Mass.) at 5×10^4 cells/well and stimulated for 12 h with phen ([…]), Aβ peptides (1000 nM) or phen/Aβ peptides in the presence or absence of anti-CD45 antibody (1:200) or PD98059 ([…]) pre-treatment for 1 hour, or appropriate controls. […] The Bio-Rad protein assay (Bio-Rad Laboratories, Hercules, Calif.) was performed to measure total cellular protein from each of the cell groups under consideration just prior to quantification of cytokine release by ELISA or NO secretion by NO assay.

p44/22 MAPK [2] = test: Western immunoblotting of phosphorylated/total p44/22 MAPK in microglial cell lysates; format: cell-based, mouse; details: microglia co-treated with phen and Aβ peptides; effect of added agent
Experimental: Murine primary culture microglia were plated in 6 well tissue-culture plates at a density of 8×10^5 cells/well. These cells were incubated for 30 min with or without phen ([…]) and Aβ peptides (1000 nM) in the presence or absence of anti-CD45 or control antibodies (1:200 dilution for each) or PD98059 ([…]) pre-treatment for 1 hour, or appropriate controls. Immediately following culturing, microglia were washed in ice-cold phosphate buffered saline (PBS) 3×, scraped into ice-cold PBS, and lysed in an ice-cold lysis buffer containing 20 mM Tris (pH 7.5), 150 mM NaCl, 1 mM EDTA, 1 mM EGTA, 1% Triton X-100, 2.5 mM sodium pyrophosphate, 1 mM b-glycerolphosphate, 1 mM Na3VO4, 1 μg/mL leupeptin, and 1 mM PMSF. After incubation for 30 min. on ice, samples were centrifuged at high speed for 15 minutes, and supernatants were collected. Total protein content was estimated using the Bio-Rad protein assay. An aliquot corresponding to 50 μg of total protein of each sample was separated by SDS-PAGE and transferred electrophoretically to Hy-bond PVDF membranes. Non-specific antibody binding was blocked with 5% non-fat dry milk for 1 h at room temperature in TBS (20 mM Tris, 500 mM NaCl, pH 7.5). […] Densiometric analysis was preformed for all blots using the Fluor-S Multimager™ with Quantity One™ software (Bio-Rad, Calif.).

p44/22 MAPK [3] = test: Immune complex kinase assay (phospho-Elk 1) in microglial cell lysates; format: cell-based, mouse; details: microglia co-treated with phen and Aβ peptides; effect of added agent
Experimental: Primary culture microglial cells were seeded in 6-well tissue-culture plates at 8×10^5 per well. Thirty minutes following co-treatment with phen and Aβ peptides in the presence or absence of anti-CD45 antibody or appropriate controls, microglial cells were lysed in ice-cold lysis buffer (as described above). Total cellular protein was quantified with the BioRad protein assay, and an aliquot of […] of protein for each treatment condition was separated by SDS-PAGE. p44/22 MAPK activity was determined using the p44/22 MAP-Kinase Assay Kit (New England BioLabs, Beverly, Mass.) in strict accordance with the manufacturer's instruction. The phosphorylated form of the Elk 1 p44/22 MAPK fusion protein was visualized by Western immunoblotting (as described above) using a specific antibody for phosphorylated Elk 1 supplied with the kit.

[4] = test system: primary cultured microglial cells; test: TNF-α ELISA on primary cultured microglial cells; format: cell-based, mouse; details: for TNF-α release induced by phen and Aβ peptides: microglia activated with phen (5 mM) and Aβ peptides (1000 nM), 12 h, effect of added agent; for TNF-α production (microglial activation): phosphatase inhibitor co-treated with Aβ peptides (1000 nM), wild-type microglia, 12 hours
Experimental: as §1, §2

Tg APPSW mice = Tg APPSW mice given ibuprofen; cited from earlier work

| Molecule | NO release induced by phen and Aβ peptides [1] | TNF-α release induced by phen and Aβ peptides [4] | NO release (microglial activation) [1] | TNF-α production (microglial activation) [4] | further results |
| --- | --- | --- | --- | --- | --- |
| COc1cccc(-c2cc(=O)c3ccccc3o2)c1N [PD98059] | markedly decreased; also recorded: statistically interactive blockade | markedly decreased; also recorded: statistically interactive blockade | – | – | phen and Aβ-mediated phosphorylation of p44/22 MAPK (p44/22 MAPK [2]): significant reduction; phen and Aβ-mediated activity of p44/22 MAPK (p44/22 MAPK [3]): significant reduction |
| CC(C)Cc1ccc(C(C)C(=O)O)cc1 (centres unmarked) [ibuprofen] | – | – | – | – | Aβ deposits, astrocytosis, and dystrophic neurites (Tg APPSW mice): reduction |
| C=C1[C@@H](O)[C@@H]2O[C@]3(CC[C@H](/C=C/[C@@H](C)[C@@H]4CC(C)=C[C@@]5(O[C@H](C[C@@](C)(O)C(=O)O)CC[C@H]5O)O4)O3)CC[C@H]2O[C@@H]1[C@@H](O)C[C@H](C)[C@H]1O[C@@]2(CCCCO2)CC[C@H]1C [okadaic acid] | – | – | not detectable | not detectable | – |
| [Na+].[Na+].[Na+].[O]=[V]([O-])([O-])[O-] [sodium orthovanadate] | – | – | results similar to phen and Aβ peptide co-treatment | results similar to phen and Aβ peptide co-treatment | – |
| B1 | markedly decreased | markedly decreased | – | – | – |
